In one assay the target is IgG. In words: Affinity to IgG by surface plasmon resonance (SPR). The format is binding. As for the experimental part:
Immobilization levels ranging from 1000-1300 resonance units (RU) are obtained. The running buffer is 10 mM HEPES, pH 7.4, 400 mM NaCl, 0.005% P20, […].
Background: Surface plasmon resonance follows binding to a sensor surface in real time, without labels.

Assay [1] concerns the target T1, ASGPR receptor on the cell surface (HepG2 cells) (Homo sapiens, UniProt P07306).
T1 construct: host or cells: HepG2
T1 sequence (P07306 1-291): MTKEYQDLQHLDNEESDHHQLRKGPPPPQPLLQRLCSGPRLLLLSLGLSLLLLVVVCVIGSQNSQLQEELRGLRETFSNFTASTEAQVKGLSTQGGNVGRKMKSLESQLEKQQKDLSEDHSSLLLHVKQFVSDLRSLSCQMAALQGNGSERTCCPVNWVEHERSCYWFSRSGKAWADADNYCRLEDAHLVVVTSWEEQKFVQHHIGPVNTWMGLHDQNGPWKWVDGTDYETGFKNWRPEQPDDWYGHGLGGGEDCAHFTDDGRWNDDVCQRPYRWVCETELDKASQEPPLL
T1 sequence (P07307 1-311 partner): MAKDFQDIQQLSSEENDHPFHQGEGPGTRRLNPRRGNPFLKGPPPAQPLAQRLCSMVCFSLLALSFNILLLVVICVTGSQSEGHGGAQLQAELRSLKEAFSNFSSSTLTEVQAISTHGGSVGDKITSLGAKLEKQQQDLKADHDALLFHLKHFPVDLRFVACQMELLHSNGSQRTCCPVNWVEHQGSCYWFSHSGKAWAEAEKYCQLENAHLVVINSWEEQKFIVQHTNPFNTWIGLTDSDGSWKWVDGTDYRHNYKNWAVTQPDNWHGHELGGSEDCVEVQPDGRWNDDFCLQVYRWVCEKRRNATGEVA
In words: Ternary complex formation assay (flow cytometry, HepG2). It counts as cell-based. An outline of the steps:
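HepG2 cells (1×10^5/well) incubated 1 h at 4 °C with 100 nM AF488-labeled anti-human IgG plus serial IgG-based degrader, or 100 nM AF488 rabbit anti-DNP plus serial DNP-based degrader. After washing, cell-associated AF488 MFI read by flow cytometry; peak MFI marks optimal degrader concentration for ternary complex.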
For orientation: In flow cytometry, cells or beads pass a laser one at a time.

A further assay concerns HepG2 cells. In words: Cellular uptake assay of AF488-labeled antibody (HepG2). The format is cell-based. The settings on record: HepG2 cells. An outline of the steps: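 HepG2 cells given 100 nM AF488-labeled human IgG or DNP antibody plus serial dilutions of matching degrader (0.1% DMSO final), 6 h at 37° C. Methanol-fixed, DAPI-stained and imaged by high-content analysis. Value is the fraction of AF488-positive cells over total DAPI-counted cells.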

The target of another assay is T2, ASGPR (Homo sapiens, UniProt P07306).
T2 sequence (P07306 1-291): T1 sequence (P07306 1-291)
In words: Affinity to ASGPR by surface plasmon resonance (SPR).

Where [2] appears, read: HepG2 cells, ternary complex formation, read-out: TCF EC50.
The mark [3] stands for this setting: 100 nM AF488-labeled antibody, 37° C. for 6 hours, class symbols, read-out: Uptake Assay EC50.
The mark [4] stands for this setting: Biacore 8K, 25° C., IgG on CM5 chip, read-out: IgG SPR Binding Kd.

Like-named read-outs stand apart in the source and are kept apart here.

As a reminder, the Kd is a measure of binding affinity in units of concentration. As usually defined, the EC50 is the concentration needed to bring the measured effect to its halfway point.

With `CC(C)C[C@@H]1NC(=O)[C@H](Cc2cnc[nH]2)NC(=O)[C@H](Cc2c[nH]c3ccccc23)NC(=O)[C@H](C)NC(=O)[C@@H]2CSSC[C@H](NC(=O)[C@H](Cc3c[nH]c4ccccc34)NC(=O)[C@H](C(C)C)NC(=O)[C@H](CC(C)C)NC(=O)[C@H](CCC(=O)O)NC(=O)CNC1=O)C(=O)N[C@@H]([C@@H](C)O)C(=O)N1CCC[C@@H]1C(=O)N1C[C@@H](NC(=O)c3ccc(N4CCC(CN5CCN(C[C@H]6OC[C@H](Nc7cncc(C(F)(F)F)n7)[C@@H](O)[C@H]6O)CC5)CC4)nn3)C[C@H]1C(=O)N[C@@H](CC(=O)O)C(=O)N2` [Compound 66], the Kd was below 100 nM at IgG (SPR, read-out: IgG KD) and below 100 nM at ASGPR. The EC50 (in assay [1] (setting [2]); in the assay with HepG2 cells (read-out: Uptake EC50)) was below 100 nM each time.
Take `CC(C)C[C@@H]1NC(=O)[C@H](Cc2c[nH]cn2)NC(=O)[C@H](Cc2c[nH]c3ccccc23)NC(=O)[C@H](C)NC(=O)[C@@H]2CSSC[C@H](NC(=O)[C@H](Cc3c[nH]c4ccccc34)NC(=O)[C@H](C(C)C)NC(=O)[C@H](CC(C)C)NC(=O)[C@H](CCC(=O)O)NC(=O)CNC1=O)C(=O)N[C@@H]([C@@H](C)O)C(=O)N1CCC[C@@H]1C(=O)N1C[C@@H](NC(=O)CCOCCOCCOCCOCCNC(=O)CCCc3cn(CCCCCC(=O)NC(COCCC(=O)NCCOCCOCCOCCOC[C@H]4OC[C@H](Nc5cncc(C(F)(F)F)n5)[C@@H](O)[C@H]4O)COCCC(=O)NCCOCCOCCOCCOC[C@H]4OC[C@H](Nc5cncc(C(F)(F)F)n5)[C@@H](O)[C@H]4O)nn3)C[C@H]1C(=O)N[C@@H](CC(=O)O)C(=O)N2` [Compound 4]: the Kd is below 100 nM at IgG (SPR, read-out: IgG KD) and below 100 nM at ASGPR. Besides, the EC50 (in assay [1]; in assay [1] (read-out: Ternary Complex EC50); in the assay on HepG2 cells (setting [3]); in the assay on HepG2 cells (read-out: Uptake EC50)) was below 100 nM each time.
On to `CC(=O)N[C@H]1[C@H](OCCOCCOCCOCCNC(=O)CCOCC(COCCC(=O)NCCOCCOCCOCCO[C@@H]2O[C@H](CO)[C@H](O)[C@H](O)[C@H]2NC(C)=O)NC(=O)CCCCCn2cc(CCCC(=O)NCCOCCOCCOCCOCCC(=O)N[C@H]3C[C@H]4C(=O)N[C@@H](CC(=O)O)C(=O)N[C@H]5CSSC[C@H](NC(=O)[C@H](Cc6c[nH]c7ccccc67)NC(=O)[C@H](C(C)C)NC(=O)[C@H](CC(C)C)NC(=O)[C@H](CCC(=O)O)NC(=O)CNC(=O)[C@H](CC(C)C)NC(=O)[C@H](Cc6c[nH]cn6)NC(=O)[C@H](Cc6c[nH]c7ccccc67)NC(=O)[C@H](C)NC5=O)C(=O)N[C@@H]([C@@H](C)O)C(=O)N5CCC[C@@H]5C(=O)N4C3)nn2)O[C@H](CO)[C@H](O)[C@@H]1O` [Compound 84], for which the Kd was below 100 nM on IgG (SPR, read-out: IgG KD) and above 1000 nM at ASGPR. Also, the EC50 (in assay [1]; in the assay with HepG2 cells (read-out: Uptake EC50)) was above 1000 nM each time.
Consider `CC(C)C[C@@H]1NC(=O)[C@H](Cc2cnc[nH]2)NC(=O)[C@H](Cc2c[nH]c3ccccc23)NC(=O)[C@H](C)NC(=O)[C@@H]2CSSC[C@H](NC(=O)[C@H](Cc3c[nH]c4ccccc34)NC(=O)[C@H](C(C)C)NC(=O)[C@H](CC(C)C)NC(=O)[C@H](CCC(=O)O)NC(=O)CNC1=O)C(=O)N[C@@H]([C@@H](C)O)C(=O)N1CCC[C@@H]1C(=O)N1C[C@@H](NC(=O)C3CCC(C(=O)NC[C@H]4OC[C@H](Nc5cncc(C(F)(F)F)n5)[C@@H](O)[C@H]4O)CC3)C[C@H]1C(=O)N[C@@H](CC(=O)O)C(=O)N2` (stereo partly drawn) [Compound 69], for which the Kd is below 100 nM at IgG (SPR, read-out: IgG KD) and 100 to 500 nM at ASGPR. Further, the 50% effective concentration (EC50) (in assay [1] (setting [2]); with HepG2 cells (read-out: Uptake EC50)) was above 1000 nM each time.
`CC(C)C[C@@H]1NC(=O)[C@H](Cc2cnc[nH]2)NC(=O)[C@H](Cc2c[nH]c3ccccc23)NC(=O)[C@H](C)NC(=O)[C@@H]2CSSC[C@H](NC(=O)[C@H](Cc3c[nH]c4ccccc34)NC(=O)[C@H](C(C)C)NC(=O)[C@H](CC(C)C)NC(=O)[C@H](CCC(=O)O)NC(=O)CNC1=O)C(=O)N[C@@H]([C@@H](C)O)C(=O)N1CCC[C@@H]1C(=O)N1C[C@@H](NC(=O)CCCc3cn(CCCCCC(=O)NC(COCCC(=O)NCCOCCOCCOCCOC[C@H]4OC[C@H](Nc5cncc(C(F)(F)F)n5)[C@@H](O)[C@H]4O)COCCC(=O)NCCOCCOCCOCCOC[C@H]4OC[C@H](Nc5cncc(C(F)(F)F)n5)[C@@H](O)[C@H]4O)nn3)C[C@H]1C(=O)N[C@@H](CC(=O)O)C(=O)N2` [Compound 52]: the Kd at IgG (setting [4]) is below 100 nM. Further, the EC50 is below 100 nM in assay [1] (HepG2 cells, 100 nM AF488-labeled antibody, 1 hour at 4° C., class symbols, read-out: Ternary Complex EC50) and below 100 nM in the assay on HepG2 cells (setting [3]).
For `CC(C)C[C@@H]1NC(=O)[C@H](Cc2c[nH]cn2)NC(=O)[C@H](Cc2c[nH]c3ccccc23)NC(=O)[C@H](C)NC(=O)[C@@H]2CSSC[C@H](NC(=O)[C@H](Cc3c[nH]c4ccccc34)NC(=O)[C@H](C(C)C)NC(=O)[C@H](CC(C)C)NC(=O)[C@H](CCC(=O)O)NC(=O)CNC1=O)C(=O)N[C@@H]([C@@H](C)O)C(=O)N1CCC[C@@H]1C(=O)N1C[C@@H](NC(=O)COCCOCC(=O)NC(COCCC(=O)NCCOCCOCCOCCOC[C@H]3OC[C@H](Nc4cncc(C(F)(F)F)n4)[C@@H](O)[C@H]3O)COCCC(=O)NCCOCCOCCOCCOC[C@H]3OC[C@H](Nc4cncc(C(F)(F)F)n4)[C@@H](O)[C@H]3O)C[C@H]1C(=O)N[C@@H](CC(=O)O)C(=O)N2` [Compound 41], at IgG (setting [4]), the Kd was below 100 nM. In addition, the EC50 (in assay [1]; in the assay on HepG2 cells (setting [3])) was below 100 nM each time.
As to `CC(C)C[C@@H]1NC(=O)[C@H](Cc2c[nH]cn2)NC(=O)[C@H](Cc2c[nH]c3ccccc23)NC(=O)[C@H](C)NC(=O)[C@@H]2CSSC[C@H](NC(=O)[C@H](Cc3c[nH]c4ccccc34)NC(=O)[C@H](C(C)C)NC(=O)[C@H](CC(C)C)NC(=O)[C@H](CCC(=O)O)NC(=O)CNC1=O)C(=O)N[C@@H]([C@@H](C)O)C(=O)N1CCC[C@@H]1C(=O)N1C[C@@H](NC(=O)CNC(COCCC(=O)NCCOCCOCCOCCO[C@@H]3O[C@H](CO)[C@H](O)[C@H](O)[C@H]3Nc3cncc(C(F)(F)F)n3)COCCC(=O)NCCOCCOCCOCCO[C@@H]3O[C@H](CO)[C@H](O)[C@H](O)[C@H]3Nc3cncc(C(F)(F)F)n3)C[C@H]1C(=O)N[C@@H](CC(=O)O)C(=O)N2` [Compound 71], the EC50 (in assay [1]; in the assay with HepG2 cells (read-out: Uptake EC50)) was below 100 nM throughout. Moreover, on ASGPR, the dissociation constant (Kd) was below 100 nM.
With `CC(C)C[C@@H]1NC(=O)[C@H](Cc2c[nH]cn2)NC(=O)[C@H](Cc2c[nH]c3ccccc23)NC(=O)[C@H](C)NC(=O)[C@@H](NC(=O)[C@H](CC(=O)O)NC(=O)CCOCCOCCOCCOCCNC(=O)CCCc2cn(CCCCCC(=O)NC(COCCC(=O)NCCOCCOCCOCCOC[C@@H]3CC[C@@H](Nc4nccc(C(F)(F)F)n4)CO3)COCCC(=O)NCCOCCOCCOCCOC[C@@H]3CC[C@@H](Nc4nccc(C(F)(F)F)n4)CO3)nn2)CSSC[C@@H](C(=O)N[C@H](C(N)=O)[C@@H](C)O)NC(=O)[C@H](Cc2c[nH]c3ccccc23)NC(=O)[C@H](C(C)C)NC(=O)[C@H](CC(C)C)NC(=O)[C@H](CCC(=O)O)NC(=O)CNC1=O` [Compound 87], the EC50 (in assay [1] (setting [2]); with HepG2 cells (read-out: Uptake EC50)) was above 1000 nM each time. The compound also returned a Kd on ASGPR above 1000 nM.
Consider `CC(C)C[C@@H]1NC(=O)[C@H](Cc2cnc[nH]2)NC(=O)[C@H](Cc2c[nH]c3ccccc23)NC(=O)[C@H](C)NC(=O)[C@@H]2CSSC[C@H](NC(=O)[C@H](Cc3c[nH]c4ccccc34)NC(=O)[C@H](C(C)C)NC(=O)[C@H](CC(C)C)NC(=O)[C@H](CCC(=O)O)NC(=O)CNC1=O)C(=O)N[C@@H]([C@@H](C)O)C(=O)N1CCC[C@@H]1C(=O)N1C[C@H](NC(=O)COCCOCC(=O)NC[C@H]3OC[C@H](Nc4cncc(C(F)(F)F)n4)[C@@H](O)[C@H]3O)C[C@H]1C(=O)N[C@@H](CC(=O)O)C(=O)N2` [Compound 91], for which the Kd on IgG (SPR, read-out: IgG KD) was below 100 nM. Moreover, the EC50 (in assay [1] (setting [2]); in the assay on HepG2 cells (read-out: Uptake EC50)) was below 100 nM throughout.
For `CC(C)C[C@@H]1NC(=O)[C@H](Cc2c[nH]cn2)NC(=O)[C@H](Cc2c[nH]c3ccccc23)NC(=O)[C@H](C)NC(=O)[C@@H](NC(=O)[C@H](CC(=O)O)NC(=O)CCOCCOCCOCCOCCNC(=O)CCCc2cn(CCCCCC(=O)NC(COCCC(=O)NCCOCCOCCOCCOC[C@H]3OC[C@H](Nc4nccc(C(F)(F)F)n4)C[C@H]3O)COCCC(=O)NCCOCCOCCOCCOC[C@H]3OC[C@H](Nc4nccc(C(F)(F)F)n4)C[C@H]3O)nn2)CSSC[C@@H](C(=O)N[C@H](C(N)=O)[C@@H](C)O)NC(=O)[C@H](Cc2c[nH]c3ccccc23)NC(=O)[C@H](C(C)C)NC(=O)[C@H](CC(C)C)NC(=O)[C@H](CCC(=O)O)NC(=O)CNC1=O` [Compound 88], the EC50 (in assay [1]; in the assay with HepG2 cells (read-out: Uptake EC50)) was above 1000 nM throughout. The same compound showed a Kd at ASGPR above 1000 nM.
